According to patent publication US20220033460A1, “IDENTIFICATION AND USE OF T CELL EPITOPES IN DESIGNING DIAGNOSTIC AND THERAPEUTIC APPROACHES FOR COVID-19” (priority 2020, published 2022):

Tested on: TCRs from the BAL of COVID-19 patients
Assay type: cell-based, human

In the case of “LLLLDRLNQLESKMSGKGQQQQ (SARS-CoV-2 epitope) [N221-242]”, the “recognition of the peptide, effect of the mutation (NFAT activation)” value is reported as “unaffected”.
